In ChEMBL document CHEMBL3886996, “6-alkynyl-pyridine derivatives” (2016):

Target: Baculoviral IAP repeat-containing protein 2 (Homo sapiens, UniProt Q13490)
Assay: Binding Assays (DELFIA): BIR3 domains (10 nM) were incubated with SMAC peptide (10 nM) in assay buffer (50 mM Tris, 120 mM NaCl, 0.1% BSA, 1 mM DTT, 0.05% Triton X100) for one hour at room temperature in the presence of inhibitory compounds. The assay mixture was transferred to a streptavidin coated plate and incubated for one hour at room temperature to allow binding of the biotinylated peptide and associated BIR3 domains to the plate. After several washing steps Eu labeled anti-GST antibody (e.g. Perkin Elmer DELFIA Eu-N1-antiGST AD0250) was added to detect BIR3 domain-SMAC peptide interactions according to Perkin Elmer's instructions. Briefly, the antibody was added (dilution 1:5000 in Perkin Elmer DELFIA Assay Buffer 2013-01) and incubated for one hour. After 3 washing steps using Delfia Washing Buffer (Perkin Elmer DELFIA Wash 2013-05), Enhancement Solution (Perkin Elmer Enhancement Asolution 2013-02) was added and incubation continued for 10 minutes.

CN[C@@H](C)C(=O)Nc1ccc(-c2c(-c3cccnc3OC)nc3ccccn23)c(C#Cc2ccc3c(C)nccc3c2)n1
IC50: in the range around 2 nM
